# Literature values as cited in patent US20090325155A1, “Aureobasin a synthetase” (priority 2005, published 2009).
# Starred links: 1 amine or outer side, 2 acyl side, 3 side chain; linkers in the order of their positions; H or OH if unused. Non-standard residues stand in square brackets, D forms with d. Residues, ends and D or L forms follow the SMILES beside them. ξ: configuration not given here. NMeVal(β-OH) = CN[C@H](C(=O)O)C(C)(C)O; X1 = CCC(C)[C@@H](O[*:1])C(=O)[*:2]; NMeF = CN[C@@H](Cc1ccccc1)C(=O)O; Ile(3ξ) = CCC(C)[C@H](N)C(=O)O; NMeV = CN[C@H](C(=O)O)C(C)C
# Key:
# Aspergillus spp. = conditions: third major human pathogen
# [1] = test system: a number of fungi, including yeasts, such as Saccharomyces cerevisiae and Schizosaccharomyces pombe; conditions: low concentration toxic against a number of fungi
smiles,measurement,setting,value
"CCC(C)[C@@H]1NC(=O)[C@@H]2CCCN2C(=O)[C@H](Cc2ccccc2)N(C)C(=O)[C@H](Cc2ccccc2)NC(=O)[C@H](C(C)C)N(C)C(=O)[C@@H](C(C)CC)OC(=O)[C@H](C(C)(C)O)N(C)C(=O)[C@H](CC(C)C)NC(=O)[C@H](C(C)C)N(C)C1=O (stereo partly drawn) [AbA, Aureobasidin A] (cyclo(F[NMeF]P[Ile(3ξ)][NMeV]L[NMeVal(β-OH)][X1][NMeV]))",cidal to fungal pathogen,Candida spp,cidal
same,toxicity to fungal pathogen,Aspergillus spp.,not toxic
same,concentration at which toxic,[1],0.1 to 0.5 µg/mL
same,cidal to fungal pathogen,Cryptococcus neoformans,cidal
